Data published in the CheMixHub viscosity set.

Assay: xn = mol fraction of the nth substance listed

CCCCO + CO
101.33 kPa
Details | viscosity [mPa·s]
298.15 K, x2 = 0.1362 | 2.2
298.15 K, x2 = 0.2224 | 1.966
298.15 K, x2 = 0.302 | 1.768
298.15 K, x2 = 0.409 | 1.528
298.15 K, x2 = 0.5154 | 1.312
298.15 K, x2 = 0.6105 | 1.139
298.15 K, x2 = 0.693 | 0.999
298.15 K, x2 = 0.8012 | 0.833
298.15 K, x2 = 0.9004 | 0.69
303.15 K, x2 = 0.2846 | 1.602
303.15 K, x2 = 0.3614 | 1.45
303.15 K, x2 = 0.4291 | 1.311
303.15 K, x2 = 0.492 | 1.191
303.15 K, x2 = 0.6007 | 1.038
303.15 K, x2 = 0.6929 | 0.8879
303.15 K, x2 = 0.7719 | 0.7812
303.15 K, x2 = 0.8404 | 0.6887
303.15 K, x2 = 0.9003 | 0.6154

NC(N)=S + c1ccncc1
298.15 K, 101 kPa
Details | viscosity [mPa·s]
x1 = 0.0572 | 1.251
x1 = 0.13 | 2.019

O.OC[C@H]1O[C@H](O[C@H]2[C@H](O)[C@@H](O)[C@H](O)O[C@@H]2CO)[C@H](O)[C@@H](O)[C@@H]1O + O
viscosity [mPa·s]
Details | x1 = 0.000899 | x1 = 0.001221 | x1 = 0.001607 | x1 = 0.001874 | x1 = 0.002333 | x1 = 0.002646 | x1 = 0.006
298.15 K, 101 kPa | 0.936 | 0.956 | 0.974 | 0.988 | 1.012 | 1.026 | –
308.15 K, 101 kPa | 0.756 | 0.77 | 0.785 | 0.795 | 0.815 | 0.825 | –
310 K, 101.3 kPa | – | – | – | – | – | – | 1.09
318.15 K, 101 kPa | 0.626 | 0.636 | 0.649 | 0.657 | 0.671 | 0.681 | –

O=C(O)CC(O)C(=O)O (centres undefined) + C[C@H](N)C(=O)O
101 kPa, x2 = 0.5
Details | viscosity [mPa·s]
298.15 K | 475400
318.15 K | 32390

CCCCOCCOCCOCCCC + CC1COC(=O)O1
viscosity [mPa·s], 101.3 kPa
Details | 298.15 K | 308.15 K | 318.15 K
x1 = 0.007 | 2.562 | 2.064 | 1.704
x1 = 0.0158 | 2.574 | 2.086 | 1.721
x1 = 0.059 | 2.676 | 2.174 | 1.735
x1 = 0.1317 | 2.748 | 2.244 | 1.768
x1 = 0.2166 | 2.735 | 2.263 | 1.773
x1 = 0.3183 | 2.7 | 2.187 | 1.729
x1 = 0.356 | 2.674 | 2.161 | 1.712
x1 = 0.3871 | 2.649 | 2.141 | 1.695
x1 = 0.4126 | 2.635 | 2.129 | 1.686
x1 = 0.4929 | 2.579 | 2.086 | 1.649
x1 = 0.5658 | 2.534 | 2.051 | 1.623
x1 = 0.5869 | 2.526 | 2.045 | 1.62
x1 = 0.6616 | 2.487 | 2.013 | 1.595
x1 = 0.7058 | 2.475 | 1.999 | 1.584
x1 = 0.748 | 2.469 | 1.992 | 1.566
x1 = 0.8266 | 2.402 | 1.954 | 1.537
x1 = 0.9183 | 2.323 | 1.899 | 1.489

CCCC[N+](CCCC)(CCCC)CCCC.[Br-] + OCCO
Details | viscosity [mPa·s]
293.15 K, 101 kPa, x1 = 0.333 | 187.3
298 K, 100 kPa, x2 = 0.75 | 98
298 K, 101.33 kPa, x1 = 0.2 | 41.51
298.15 K, 100 kPa, x1 = 0.333 | 188
298.15 K, 101 kPa, x1 = 0.2 | 69
303.15 K, 100 kPa, x1 = 0.2 | 161.7
303.15 K, 101 kPa, x1 = 0.2 | 53.8
303.15 K, 101 kPa, x1 = 0.333 | 124
308 K, 100 kPa, x2 = 0.75 | 57
308.15 K, 101 kPa, x1 = 0.2 | 42.6
313.15 K, 100 kPa, x1 = 0.2 | 102.1
313.15 K, 101 kPa, x1 = 0.2 | 31.2
313.15 K, 101 kPa, x1 = 0.333 | 84.3
318 K, 100 kPa, x2 = 0.75 | 35
318.15 K, 101 kPa, x1 = 0.2 | 27.8
323.15 K, 100 kPa, x1 = 0.2 | 61.85
323.15 K, 101 kPa, x1 = 0.2 | 21.7
323.15 K, 101 kPa, x1 = 0.333 | 58.7

O=C(O)CC(O)C(=O)O (centres undefined) + C[N+](C)(C)CCO.[Cl-]
Details | viscosity [mPa·s]
293.15 K, 101 kPa, x1 = 0.5 | 24490
293.2 K, 101.3 kPa, x2 = 0.602 | 8896
293.2 K, 101.3 kPa, x2 = 0.666 | 3341
298 K, 101.3 kPa, x2 = 0.5 | 2082
298.15 K, 101 kPa, x1 = 0.5 | 22090
298.15 K, 101.33 kPa, x1 = 0.7 | 530.2
303.15 K, 101 kPa, x1 = 0.5 | 13390
303.2 K, 101.3 kPa, x2 = 0.602 | 5432
303.2 K, 101.3 kPa, x2 = 0.666 | 2810
308.15 K, 101 kPa, x1 = 0.5 | 8995
313.15 K, 101 kPa, x1 = 0.5 | 5859
313.2 K, 101.3 kPa, x2 = 0.505 | 6421
313.2 K, 101.3 kPa, x2 = 0.602 | 2827
313.2 K, 101.3 kPa, x2 = 0.666 | 1676
318.15 K, 101 kPa, x1 = 0.5 | 4121
323 K, 101.3 kPa, x2 = 0.5 | 610
323.15 K, 101 kPa, x1 = 0.5 | 2924

NCCNCCN + CCN(CC)CCO
viscosity [mPa·s], 101 kPa
Details | x1 = 0.1 | x1 = 0.1999 | x1 = 0.2999 | x1 = 0.3997 | x1 = 0.4997 | x1 = 0.5997 | x1 = 0.6996 | x1 = 0.7992 | x1 = 0.8989
293.15 K | 6.36 | 7.21 | 8 | 8.32 | 8.45 | 8.11 | 7.8 | 7.34 | 7.02
303.15 K | 4.38 | 4.95 | 5.25 | 5.5 | 5.64 | 5.52 | 5.31 | 5.08 | 4.89
313.15 K | 3.14 | 3.46 | 3.72 | 3.92 | 4.02 | 3.94 | 3.8 | 3.62 | 3.52
323.15 K | 2.28 | 2.54 | 2.72 | 2.9 | 3 | 2.95 | 2.88 | 2.77 | 2.69

Cc1cccc(N)c1 + c1ccccc1
303.15 K, 101.33 kPa
Details | viscosity [mPa·s]
x1 = 0.196 | 0.695
x1 = 0.405 | 0.87
x1 = 0.598 | 1.15
x1 = 0.795 | 1.54

NCCNCCN + CCO
viscosity [mPa·s], 100 kPa
Details | x2 = 0.1023 | x2 = 0.2001 | x2 = 0.3566 | x2 = 0.492 | x2 = 0.6001 | x2 = 0.6952 | x2 = 0.7703 | x2 = 0.8378 | x2 = 0.897 | x2 = 0.9523
298.15 K | 5.92 | 5.97 | 5.63 | 5.02 | 4.36 | 3.7 | 3.08 | 2.51 | 1.97 | 1.49
303.15 K | 4.85 | 4.98 | 4.76 | 4.25 | 3.74 | 3.17 | 2.69 | 2.2 | 1.76 | 1.34
308.15 K | 4.21 | 4.33 | 4.13 | 3.69 | 3.24 | 2.79 | 2.4 | 1.99 | 1.62 | 1.24

NCCNCCN + CCCCCCCCCCO
viscosity [mPa·s], 101 kPa
Details | 298.15 K | 303.15 K | 308.15 K
x1 = 0.0564 | 12.02 | 9.924 | 8.366
x1 = 0.1003 | 12.52 | 10.34 | 8.775
x1 = 0.1543 | 12.81 | 10.46 | 8.862
x1 = 0.2007 | 12.75 | 10.39 | 8.738
x1 = 0.259 | 12.43 | 10.11 | 8.451
x1 = 0.3083 | 12 | 9.746 | 8.092
x1 = 0.4061 | 10.91 | 8.874 | 7.255
x1 = 0.5034 | 9.787 | 7.869 | 6.538
x1 = 0.6067 | 8.422 | 6.913 | 5.779
x1 = 0.7075 | 7.345 | 6.087 | 5.117
x1 = 0.8062 | 6.406 | 5.281 | 4.552
x1 = 0.852 | 6.037 | 4.932 | 4.298
x1 = 0.9067 | 5.656 | 4.678 | 4.065
x1 = 0.9524 | 5.499 | 4.556 | 3.897
